Columns and labels:
[1] = cited from earlier work
[2] = in vivo; cited from earlier work
albumin = albumin (Homo sapiens, UniProt P02768); details: cited from earlier work
tumour LS 174 T = test: laser-induced fluorescence imaging of tumour-bearing mouse; type: in vivo, mouse (Swiss Nude)
Excerpt: 2-[7-[1,3-dihydro-3,3-dimethyl-5-(methoxycarbonyl)-1-(4-sulfobutyl)-2H-indol-2-yliden]-1,3,5-heptatrienyl]-3,3 -dimethyl-5-(methoxycarbonyl)-1-(4-sulfobutyl)-3H-indolium, sodium salt at a dose of 3.8 μmol/kg body weight was applied intravenously to an anaesthetized, tumour-bearing mouse (Swiss Nude; tumour LS 174 T at the right hindleg).
The laser-induced fluorescent images were taken prior to, and at various points in time after, applying the substance with a fluorescence imager (at Physikalisch-Technische Bundesanstalt, Berlin Charlottenburg). Radiation was excited using monochromatic laser light at 740 nm by decoupling the radiation via a fibre optical waveguide system. Exciting radiation below 740 nm was removed using a cutoff filter. The laser-induced fluorescence light above 740 nm was recorded using a CCD camera (Charge Coupled Device), and data was stored in the form of black-and-white images.

albumin, sequence (P02768 25-609, species assumed): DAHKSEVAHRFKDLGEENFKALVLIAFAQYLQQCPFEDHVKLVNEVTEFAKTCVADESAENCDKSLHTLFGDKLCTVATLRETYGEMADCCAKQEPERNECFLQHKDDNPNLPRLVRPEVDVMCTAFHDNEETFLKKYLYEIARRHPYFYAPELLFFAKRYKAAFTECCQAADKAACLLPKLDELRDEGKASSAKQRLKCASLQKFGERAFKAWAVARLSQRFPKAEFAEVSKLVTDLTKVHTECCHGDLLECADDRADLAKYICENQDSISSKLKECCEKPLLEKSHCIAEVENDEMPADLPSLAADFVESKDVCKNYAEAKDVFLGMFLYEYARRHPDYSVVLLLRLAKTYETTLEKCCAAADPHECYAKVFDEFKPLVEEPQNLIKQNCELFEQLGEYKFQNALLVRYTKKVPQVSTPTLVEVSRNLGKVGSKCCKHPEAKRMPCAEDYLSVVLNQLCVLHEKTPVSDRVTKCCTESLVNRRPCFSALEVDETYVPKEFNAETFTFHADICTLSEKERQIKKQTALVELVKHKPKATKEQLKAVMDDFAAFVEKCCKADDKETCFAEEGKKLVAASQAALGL

Row | SMILES | stability when dissolved ([1]; dissolved) | applicability in saline media ([1]; saline media) | LD50 [2] | binding to albumin (albumin) | fluorescent intensity distribution (tumour LS 174 T; 30 seconds after i.v. 3.8 μmol/kg body weight, excitation 740 nm) | fluorescent intensity in the tumour as compared with the rest of the body (tumour LS 174 T; 18 hours after i.v. 3.8 μmol/kg body weight) | distribution of the substance in the animal (tumour LS 174 T; up to 1 h after i.v. 3.8 μmol/kg body weight)
1 | CC1(C)C(/C=C/C=C/C=C/C=C2\N(CCCCS(=O)(=O)O)c3ccc4ccccc4c3C2(C)C)=[N+](CCCCS(=O)(=O)[O-])c2ccc3ccccc3c21 [Indocyanine green] | unstable when dissolved | precipitation will occur | 0.84 mmol/kg | up to 100% |  |  | 
2 | COC(=O)c1ccc2c(c1)C(C)(C)C(=CC=CC=CC=CC1=[N+](CCCCS(=O)(=O)O)c3ccc(C(=O)OC)cc3C1(C)C)N2CCCCS(=O)(=O)O.[Na+] [Example 8, 2-[7-[1,3-dihydro-3,3-dimethyl-5-(methoxycarbonyl)-1-(4-sulfobutyl)-2H-indol-2-yliden]-1,3,5-heptatrienyl]-3,3-dimethyl-5-(methoxycarbonyl)-1-(4-sulfobutyl)-3H-indolium, sodium salt] |  |  |  |  | values being increased in the hepatic and pulmonary regions and in the tumour | clearly increased fluorescent intensity | spreads more and more throughout the animal
